ChEMBL document CHEMBL5614427, “Discovery and Optimization of N-Heteroaryl Indazole LRRK2 Inhibitors” (J Med Chem, 2024)
Each block holds one compound with its values, some of them ahead of it.

Legend:
[1] = Mean residence time in Wistar Han rat at 0.1 mg/kg, iv administered as cassette dosing measured upto 24 hrs by LC-MS/MS analysis; format: ADME, organism-based; conditions: in vivo
[2] = Lipophilicity, logD of compound at pH 7 by shake flask based HPLC method; format: physicochemical; conditions: buffer
[3] = Ratio of unbound brain to plasma drug concentration in Wistar Han rat; format: ADME, cell-free; conditions: read-out: K(p,uu,brain)
[4] = Mean residence time in Beagle dog at 0.25 mg/kg, iv measured upto 24 hrs by LC-MS/MS analysis; format: ADME, organism-based, Canis lupus familiaris; conditions: in vivo
[5] = Mean residence time in Wistar Han rat at 2 mg/kg, iv measured upto 24 hrs by LC-MS/MS analysis; format: ADME, organism-based; conditions: in vivo
[6] = Oral bioavailability in Wistar Han rat at 10 mg/kg measured upto 24 hrs by LC-MS/MS analysis; format: ADME, organism-based; conditions: in vivo
[7] = AUC in rat at 100 mg/kg, po BID; format: ADME, organism-based; conditions: in vivo
[8] = Oral bioavailability in Wistar Han rat at 1 mg/kg measured upto 24 hrs by LC-MS/MS analysis; format: ADME, organism-based; conditions: in vivo
[9] = Oral bioavailability in Beagle dog at 0.5 mg/kg measured upto 24 hrs by LC-MS/MS analysis; format: ADME, organism-based, Canis lupus familiaris; conditions: in vivo
[10] = Ratio of unbound CSF to plasma drug concentration in rhesus monkey; format: ADME, Macaca mulatta
[11] = Ratio of unbound brain to plasma drug concentration in rhesus monkey; format: ADME, cell-free, Macaca mulatta; conditions: read-out: K(p,uu,brain)

SMILES: CC1(N2CCC(c3cc4c(cnn4-c4cnn(-c5ncc(F)cn5)c4)cc3Cl)CC2)COC1
MRT [1]: 3.3 h | logD [2]: 3.3

SMILES: Cn1ccc(-n2ncc3cc(Cl)c(C4CCN(C5COC5)CC4)cc32)n1
MRT [1]: 1.5 h

SMILES: CC1(N2CCC(c3cc4c(cnn4-c4cnn(C(F)F)c4)cc3Cl)CC2)COC1
MRT [1]: 3.5 h | logD [2]: 3.7

SMILES: C[C@@]1(N2CCN(c3cc4c(cnn4-c4cnn(C56CC(C5)C6)c4)cc3Cl)CC2)COC[C@@H]1O
Kp uu [3]: 0.4 | MRT [4]: 12 h | MRT [5]: 5.8 h | bioavailability [6]: 48% | AUC [7]: 101 µM·h

SMILES: Cn1cc(-n2ncc3cc(Cl)c(C4CCN(C5COC5)CC4)cc32)cn1
MRT [1]: 2.1 h | Kp uu [3]: 0.4 | bioavailability [8]: 77% | MRT [4]: 2.1 h | bioavailability [9]: 59% | Kp uu [10]: 1 | Kp uu [11]: 0.9

SMILES: CC1(N2CCN(c3cc4c(cnn4-c4cnn(C56CC(C(F)F)(C5)C6)c4)cc3Cl)CC2)COC1
MRT [1]: 2.7 h

SMILES: Cc1cc(-n2ncc3ccc([C@]4(C#N)CC45CC5)cc32)nc(C)n1
MRT [1]: 1 h | Kp uu [3]: 0.19

SMILES: CO[C@@H]1CCN(c2cc(-n3ncc4ccc([C@]5(C)CC56CC6)cc43)ncn2)C1
MRT [1]: 1 h

SMILES: CC1(N2CCN(c3cc4c(cnn4-c4cnn(-c5ncc(F)cn5)c4)cc3Cl)CC2)COC1
MRT [1]: 4.5 h | bioavailability [8]: 88% | MRT [4]: 17 h | bioavailability [9]: 47% | logD [2]: 2.8

SMILES: CO[C@H]1C[C@H](n2cc(-n3ncc4cc(Cl)c(C5CCN(C6(C)COC6)CC5)cc43)cn2)C1
MRT [1]: 4.1 h | logD [2]: 3.5

SMILES: CCn1cc(-n2ncc3cc(Cl)c(C4CCN(C5(C)COC5)CC4)cc32)cn1
MRT [1]: 4 h | logD [2]: 3.2

SMILES: Cn1cc(-n2ncc3cc(Cl)c(C4CCN(C5(C)COC5)CC4)cc32)cn1
MRT [1]: 3.4 h | logD [2]: 2.8

SMILES: COCC12CC(n3cc(-n4ncc5cc(Cl)c(N6CCN(C7(C)COC7)CC6)cc54)cn3)(C1)C2
MRT [1]: 2.2 h

SMILES: Cn1ccc(-n2ncc3ccc([C@]4(C#N)CC45CC5)cc32)n1
MRT [1]: 0.8 h | Kp uu [3]: 1

SMILES: Cc1nc(-n2ncc3ccc([C@]4(C#N)CC45CC5)cc32)cs1
MRT [1]: 0.8 h | Kp uu [3]: 0.5

Second part, the compound after the results:

MRT [1]: 3.2 h
SMILES: COC12CC(n3cc(-n4ncc5cc(Cl)c(N6CCN(C7(C)COC7)CC6)cc54)cn3)(C1)C2

MRT [1]: 3.6 h | logD [2]: 3.4
SMILES: CC1(N2CCC(c3cc4c(cnn4-c4cnn(C5CC5)c4)cc3Cl)CC2)COC1

MRT [1]: 3.2 h
SMILES: CC1(N2CCN(c3cc4c(cnn4-c4cnn(C5CC5)c4)cc3Cl)CC2)CCOC1 (stereo not given)

MRT [1]: 2.5 h
SMILES: C[C@@]1(N2CCN(c3cc4c(cnn4-c4cnn(C5CC5)c4)cc3Cl)CC2)COC[C@@H]1O

MRT [1]: 2.8 h
SMILES: CC1(N2CCN(c3cc4c(cnn4-c4cnn(C5CC5)c4)cc3Cl)CC2)COC1

MRT [1]: 3.4 h
SMILES: CC1(N2CCN(c3cc4c(cnn4-c4cnn(C56CC(C5)C6)c4)cc3Cl)CC2)COC1

MRT [1]: 2.9 h
SMILES: CC1(N2CCN(c3cc4c(cnn4-c4cnn(C56CC(C#N)(C5)C6)c4)cc3Cl)CC2)COC1
